# Target: T1, α-synuclein (Homo sapiens, UniProt P37840)
# T1 construct: purchased Sino Biological
# Test: Detection of the ability of compounds to inhibit α-synuclein self-aggregation by HPLC
# Type: biochemical
# Settings: test compound 200 μg/mL, α-synuclein 250 μg/ml, 37° C., 9 days; HPLC peak area of α-synuclein multimers vs model group
# Protocol: The test compound (for poorly soluble compounds, dissolve with an appropriate amount of DMSO first) and fresh α-synuclein monomers (purchased from Sino Biological) were added to pure water to a final protein concentration of 250 μg/ml, and the concentration of the test compound was 200 μg/mL, followed by incubation at 37° C. for 9 days. The peak area of α-synuclein multimers after incubation was detected by HPLC and the inhibition rate was calculated. […] Inhibition rate=(peak area of model group−peak area of example group)/peak area of model group×100%.
row,inhibition rate (%),SMILES
1,87.6%,"CCCCC(Cc1c[nH]c2ccccc12)NC(=O)c1cc2ccc(N3CCN(C)CC3)cc2o1 (stereo not shown) [Example 27, N-(1-(1H-indole-3-yl)hexan-2-yl)-6-(4-methylpiperazine-1-yl) benzofuran-2-carboxamide]"

# Same assay, conditions: test compound 200 μg/mL, α-synuclein 250 μg/ml, 37° C., 9 days; HPLC peak area of α-synuclein multimers vs model group; read-out: inhibition rate (%)
row,SMILES,inhibition at 200 µg/mL
1,"CCCCC(Cc1c[nH]c2ccccc12)NC(=O)c1cc2c(F)cc(N3CCN(C)CC3)cc2s1 (stereo not shown) [Example 6, N-(1-(1H-indol-3-yl)hexane-2-yl)-4-fluoro-6-(4-methylpiperazin-1-yl) benzo[b]thiophene-2-carboxamide]",97.8%
2,"CCCCC(Cc1c[nH]c2ccccc12)NC(=O)c1cc2cc(N3CCN(C)CC3)ccc2s1 (stereo not shown) [Example 7, N-(1-(1H-indol-3-yl)hexane-2-yl)-5-(4-methylpiperazine-1-yl) benzo[b]thiophene-2-carboxamide]",71.5%
3,"CCCCC(Cc1c[nH]c2ccccc12)NC(=O)c1cc2ccc(N3CCN(c4ccccc4)CC3)cc2s1 (stereo not shown) [Example 14, N-(1-(1H-indol-3-yl)hexane-2-yl)-6-(4-phenylpiperazine-1-yl) benzo[b]thiobene-2-carboxamide]",73.5%
4,"CCCCC(Cc1c[nH]c2ccccc12)NC(=O)c1cc2ccc(N3CCC(F)(F)CC3)cc2s1 (stereo not shown) [Example 15, N-(1-(1H-indol-3-yl)hexane-2-yl)-6-(4,4-difluoropiperidin-1-yl) benzo[b]thiophene-2-carboxamide]",96.2%
5,"CCCCC(Cc1c[nH]c2ccccc12)NC(=O)c1cc2ccc(N3CCC(C)(C)CC3)cc2s1 (stereo not shown) [Example 16, N-(1-(1H-indol-3-yl)hexane-2-yl)-6-(4,4-dimethylpiperidin-1-yl) benzo[b]thiobene-2-carboxamide]",96.3%
6,"CCCCC(Cc1c[nH]c2ccccc12)NC(=O)c1cc2ccc(N3CCN(C)CC3)c(F)c2s1 (stereo not shown) [Example 17, 7-Fluoro-N-[1-(1H-indol-3-yl)hexyl-2-yl]-6-(4-methylpiperazin-1-yl)-1-benzothiophene-2-carboxamide]",98.2%
7,"CCCCC(Cc1c[nH]c2ccccc12)NC(=O)c1cc2cnc(N3CCC(C)CC3)cc2s1 (stereo not shown) [Example 18, N-(1-(1H-indol-3-yl)hexane-2-yl)-6-(4-methylpiperidin-1-yl) thieno[3,2-c]pyridine-2-carboxamide]",76.9%
8,"CCCCC(Cc1c[nH]c2ccccc12)NC(=O)c1cc2ccc(N3CCC(O)CC3)cc2s1 (stereo not shown) [Example 19, N-(1-(1H-indol-3-yl)hexane-2-yl)-6-(4-hydroxypiperidin-1-yl) benzo[b]thiophene-2-carboxamide]",93.5%
9,CCCCC(Cc1c[nH]c2ccccc12)NC(=O)c1cc2ccc(N3CCC4(CC3)CN(C)C4)cc2s1 (stereo not shown) [Example 22],83.8%
10,"CCCCC(Cc1c[nH]c2ccccc12)NC(=O)c1cc2ccc(N3CCC(N(C)C)CC3)cc2s1 (stereo not shown) [Example 24, N-(1-(1H-indol-3-yl)hexane-2-yl)-6-(4-(dimethylamino)piperidin-1-yl) benzo[b]thiophene-2-carboxamide]",89.7%
11,"CCCCC(Cc1c[nH]c2ccc(F)cc12)NC(=O)c1cc2ccc(N3CCN(C)CC3)cc2s1 (stereo not shown) [Example 26, N-(1-(5-fluoro-1H-indole-3-yl)hexane-2-yl)-6-(4-methylpiperazine-1-yl) benzo [b] thiophene-2-carboxamide]",93.3%
12,"CC(C)=CCC(Cc1c[nH]c2ccccc12)NC(=O)c1cc2ccc(N3CCN(C)CC3)cc2s1 (stereo not shown) [Example 32, N-(1-(1H-indol-3-yl)-5-methyl-4-hexene-2-yl)-6-(4-methylpiperazin-1-yl) benzo[b]thiophene-2-carboxamide]",86.1%
13,"COCCC(Cc1c[nH]c2ccccc12)NC(=O)c1cc2ccc(N3CCN(C)CC3)cc2s1 (stereo not shown) [Example 34, N-[1-(CH-indol-3-yl)-4-methoxybutyl-2-yl]-6-(4-methylpiperazin-1-yl)-1-benzothiophene-2-carboxamide]",97.5%
14,"C/C=C\CC(Cc1c[nH]c2ccccc12)NC(=O)c1cc2ccc(N3CCN(C)CC3)cc2s1 (stereo not shown) [Example 35, (Z)—N-(1-(1H-indol-3-yl)-4-hexene-2-yl)-6-(4-methylpiperazin-1-yl) benzo[b]thiophene-2-carboxamide]",85.4%
15,"CCCCC(Cc1c[nH]c2ccccc12)NC(=O)c1cc2ccc(N3CCN(C)CC3)cc2n1C (stereo not shown) [Example 36, N-[1-(1H-indol-3-yl)hexyl-2-yl]-1-methyl-6-(4-methylpiperazin-1-yl)-1H-indole-2-carboxamide]",85.3%

# Continued, values first:
row,inhibition at 200 µg/mL,SMILES
1,86.8%,"CCCCC(Cc1c[nH]c2ccccc12)NC(=O)c1cc2ccc(N3CCN(C)CC3)nc2s1 (stereo not shown) [Example 2, N-[1-(1H-indol-3-yl)hexyl-2-yl]-6-(4-methylpiperazin-1-yl) thiophene[2,3-b]pyridine-2-carboxamide]"
2,90.6%,"CCCCC(Cc1c[nH]c2ccccc12)NC(=O)c1nc2ccc(N3CCN(C)CC3)cc2s1 (stereo not shown) [Example 4, N-(1-(1H-indol-3-yl)hexane-2-yl)-6-(4-methylpiperazin-1-yl) benzo[d]thiazole-2-carboxamide]"
3,98.6%,"CCCCC(Cc1c[nH]c2ccccc12)NC(=O)c1cc2cc(F)c(N3CCN(C)CC3)cc2s1 (stereo not shown) [Example 5, N-(1-(1H-indol-3-yl)hexane-2-yl)-5-fluoro-6-(4-methylpiperazin-1-yl) benzo[b]thiophene-2-carboxamide]"
4,73.7%,"CCCCC(Cc1c[nH]c2ccccc12)NC(=O)c1cc2cnc(N3CCN(C)CC3)cc2s1 (stereo not shown) [Example 8, N-(1-(1H-indol-3-yl)hexane-2-yl)-6-(4-methylpiperazin-1-yl) thieno[3,2-c] pyridine-2-carboxamide]"
5,78.1%,"CCCCC(Cc1c[nH]c2ccccc12)NC(=O)c1cc2c(C)nc(N3CCN(C)CC3)cc2s1 (stereo not shown) [Example 9, N-(1-(1H-indol-3-yl)hexane-2-yl)-4-methyl-6-(4-methylpiperazin-1-yl) thieno[3,2-c]pyridine-2-carboxamide]"
6,73.1%,"CCCCC(Cc1c[nH]c2ccccc12)NC(=O)c1cc2cccc(N3CCN(C)CC3)c2s1 (stereo not shown) [Example 10, N-(1-(1H-indol-3-yl)hexane-2-yl)-7-(4-methylpiperazin-1-yl) benzo[b]thiophene-2-carboxamide]"
7,73.4%,"CCCCC(Cc1c[nH]c2ccccc12)NC(=O)c1sc2cc(N3CCN(C)CC3)ccc2c1C (stereo not shown) [Example 11, N-(1-(1H-indol-3-yl)hexane-2-yl)-3-methyl-6-(4-methylpiperazin-1-yl) benzo[b]thiophene-2-carboxamide]"
8,86.9%,"CCCCC(Cc1c[nH]c2ccccc12)NC(=O)c1cc2ccc(N3CCC(C)CC3)cc2s1 (stereo not shown) [Example 12, N-(1-(1H-indol-3-yl)hexane-2-yl)-6-(4-methylpiperidin-1-yl) benzo[b]thiophene-2-carboxamide]"
9,94.4%,"CCCCC(Cc1c[nH]c2ccccc12)NC(=O)c1cc2ccc(N3CCN(C(C)C)CC3)cc2s1 (stereo not shown) [Example 13, N-(1-(1H-indol-3-yl)hexane-2-yl)-6-(4-isopropylpiperazin-1-yl) benzo[b]thiophene-2-carboxamide]"
10,95.6%,"CCCCC(Cc1c[nH]c2ccccc12)NC(=O)c1cc2ccc(N3CCC4(CC3)COC4)cc2s1 (stereo not shown) [Example 20, N-[1-(1H-indol-3-yl)hexane-2-yl]-6-(2-oxa-7-azaspiro [3.5]nonan-7-yl)-1-benzothiophene-2-carboxamide]"
11,78.2%,CCCCC(Cc1c[nH]c2ccccc12)NC(=O)c1cc2ccc(N3CCC4(CC3)CN(C3CCN(C)CC3)C4)cc2s1 (stereo not shown) [Example 21]
12,89.7%,"CCCCC(Cc1c[nH]c2ccccc12)NC(=O)c1cc2ccc(N3CCOCC3)cc2s1 (stereo not shown) [Example 23, N-(1-(1H-indol-3-yl)hexane-2-yl)-6-morpholinobenzo[b]thiophene-2-carboxamide]"
13,90.8%,"CCCCC(Cc1c[nH]c2ccccc12)NC(=O)c1cc2ccc(N3CC4(CN(C)C4)C3)cc2s1 (stereo not shown) [Example 25, N-(1-(1H-indol-3-yl)hexane-2-yl)-6-(6-methyl-2,6-diazaspiro [3.3]heptane-2-yl) benzo[b]thiophene-2-carboxamide]"
14,73%,"CCCCC(Cc1c[nH]c2ccccc12)NC(=O)c1cc2ccc(N3CCN(C)CC3)cc2[nH]1 (stereo not shown) [Example 28, N-(1-(1H-indole-3-yl)hexane-2-yl)-6-(4-methylpiperazine-1-yl)-1H-indole-2-carboxamide]"
15,96.7%,"CCCCC(Cc1c[nH]c2ccccc12)NC(=O)c1cc2cnc(N3CCN(C)CC3)nc2s1 (stereo not shown) [Example 29, N-(1-(1H-indole-3-yl)hexane-2-yl)-2-(4-methylpiperazine-1-yl) thieno [2,3-d]pyrimidine-6-carboxamide]"
16,71.4%,"CCCCC(Cc1c[nH]c2ccc(C)cc12)NC(=O)c1cc2ccc(N3CCN(C)CC3)cc2s1 (stereo not shown) [Example 30, N-(1-(5-methyl-1H-indole-3-yl)hexane-2-yl)-6-(4-methylpiperazine-1-yl) benzo[b]thiophene-2-carboxamide]"
17,95.3%,"CCCCC(Cc1c[nH]c2ccncc12)NC(=O)c1cc2ccc(N3CCN(C)CC3)cc2s1 (stereo not shown) [Example 31, N-(1-(1H-pyrrole[3,2-c]pyridin-3-yl)hexane-2-yl)-6-(4-methylpiperazine-1-yl) benzo[b]thiophene-2-carboxamide]"
18,93.4%,"CC(C)CCC(Cc1c[nH]c2ccccc12)NC(=O)c1cc2ccc(N3CCN(C)CC3)cc2s1 (stereo not shown) [Example 33, N-(1-(1H-indol-3-yl)-5-methylhexane-2-yl)-6-(4-methylpiperazin-1-yl) benzo[b]thiophene-2-carboxamide]"
